According to patent publication EP4810493A1, “HETEROCYCLIC CARBONYL DERIVATIVE MODULATOR, PREPARATION METHOD THEREFOR, AND USE THEREOF” (Shanghai Hansoh Biomedical Co., Ltd., priority 2023, dated 2025):

Target: T1, M4 receptor (Homo sapiens, UniProt P08173)
T1 construct: expressed in transfected cells
T1 sequence (P08173 1-479): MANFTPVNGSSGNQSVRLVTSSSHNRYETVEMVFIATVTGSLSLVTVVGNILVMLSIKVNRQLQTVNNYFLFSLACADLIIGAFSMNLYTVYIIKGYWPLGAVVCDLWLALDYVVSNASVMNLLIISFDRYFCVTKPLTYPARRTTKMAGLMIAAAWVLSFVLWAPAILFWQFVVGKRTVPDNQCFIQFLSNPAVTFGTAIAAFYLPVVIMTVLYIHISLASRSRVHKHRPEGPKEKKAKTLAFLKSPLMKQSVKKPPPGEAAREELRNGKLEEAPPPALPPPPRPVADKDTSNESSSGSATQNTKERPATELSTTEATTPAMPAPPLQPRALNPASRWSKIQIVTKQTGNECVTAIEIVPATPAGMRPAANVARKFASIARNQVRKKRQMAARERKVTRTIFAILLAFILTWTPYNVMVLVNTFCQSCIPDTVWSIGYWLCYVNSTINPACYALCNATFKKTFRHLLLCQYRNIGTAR
Test: Calcium flux (FLIPR) potentiation assay in cells stably expressing M4 receptor
Assay type: cell-based
Settings: not given
Excerpt: Test example 1. Determination of the effect of the compounds of the present invention on calcium current in cells stably expressing M1-M5 receptors
To detect the potentiating effect of compounds on calcium flux activity in CHO-K1/human M1/3/5 and CHO-K1/Gα15 M2/4 cells.
384-well assay plate, 384-well plate, FLIPR Tip, FLIPR Penta plate reader, Dispendix non-contact nanoliter dispensing system (liquid handling workstation), liquid handler.
Ham's F-12 Nutrient Mix, foetal bovine serum, P/S (Gibco: 15140122), HBSS (Gibco: 14025076), HEPES (Gibco: 15630080), FLIPR calcium 6 assay kit (Molecular Devices: R8190), Probenecid (PBA) (Invitrogen: P36400), Acetylcholine chloride (Sigma: A6625-25G) Complete culture medium: DMEM + 10% FBS + 1X P/S; Cell seeding medium: DMEM + 10% FBS + 1X PS; Assay buffer 1: 1X HBSS + 20 mM HEPES +2.5 mM Probenecid; Assay buffer 2: 1X HBSS + 20 mM HEPES; Cell line: CHO-K1/M1; CHO-K1/M2/Gα15; CHO-K1/M3; CHO-K1/M4/Gα15; CHO-K1/M5.
FLIPR calcium 6 assay kit: Component A was dissolved in Assay buffer 1, and the mixture was shaken for 1-2 min, sub-packaged and stored at -20°C.
• 1) CHO-K1/M1; CHO-K1/M2/Gα15; CHO-K1/M3; CHO-K1/M4/Gα15; and CHO-K1/M5 cell lines were cultured separately in complete culture medium at 37°C, 5% CO2 to 70%-90% confluency. • 2) The cells were digested and resuspended in cell seeding medium, 5,000 cells/well/20 µL were seeded into a 384-well cell culture plate, and the cells were cultured at 37°C, 5% CO2 for 24 hours. • 3) The cell culture plate was taken out of the CO2 incubator and equilibrated at room temperature for 10 minutes. • 4) Component A solution was removed and allowed to equilibrate to room temperature. 20 µL of Component A solution was added to each well of the cell culture plate, and incubated at room temperature in the dark for 1 hour. • 5) Acetylcholine chloride (ACh), a muscarinic receptor agonist, was prepared in Assay buffer 2 at EC20/EC100 concentrations; subsequently, 30 µL of the prepared muscarinic receptor agonist was added to a 384-well agonist plate (PE: 6008590) using a Multidrop Combi; the working solutions of the positive control compound and the test compound were serially diluted at a 3.16-fold gradient and dispensed (450 nL) into a 384-well compound plate (PE: 6008590) using the Dispendix liquid handling workstation; 30 µL of Assay buffer 2 was added to the 384-well compound plate (PE: 6008590) using the Multidrop Combi; the positive control compound and the test compound were diluted to 6X, mixed by shaking, and placed at room temperature until use. • 6) 10 µL of the diluted 6X compound was added to the assay wells of the corresponding 384-well cell plate using the FLIPR Penta, followed by a 2-minute incubation. • 7) 10 µL of the prepared muscarinic receptor agonist was added to the assay wells of the corresponding 384-well cell plate using the FLIPR Penta, with simultaneous data acquisition.
FLIPR Penta was used to read and collect the fluorescence signal value (RFU). The maximum RFU value was used to calculate the percent activation data based on the readings of the Low control (DMSO control group) and High control (ACh EC100) experimental groups {% activation rate = (RFUsample - RFUlow control) / (RFUhigh control - RFUlow control)×100}. The test compound was diluted 3.16X in the reaction system to generate 11 concentration points ranging from 30 µM to […].

Question: `Cc1c2c(c3ncnn3c1C)CN(C(=O)CC1CN(c3ncc(F)cc3F)C1)C2` [Example 301] was tested. Which EC50 did it give?
Answer: Its EC50 is 12.4 nM.

Question: Which EC50 does the source give for `Cc1c2c(c3ncnn3c1C)CN(C(=O)CC1CN(c3ccc4c(ccn4C)c3)C1)C2` [Example 309] here?
Answer: Its EC50 is 28.1 nM.

Same assay, conditions: CHO-K1/M4/Gα15 cells; potentiation of acetylcholine (EC20) calcium flux; read-out: M4 FLIPR EC50

Question: With `Cc1c2c(c3ccnn3c1C)CN(C(=O)CC1CN(c3ccnc(OCC(F)F)c3)C1)C2` [Example 203] as the compound, how does the EC50 read?
Answer: Its EC50 is 90 nM.

Question: With `Cc1c2c(c3ncnn3c1C)CN(C(=O)CC1CN(c3cc(C(F)(F)F)ncc3Cl)C1)C2` [Example 204] as the compound, how does the EC50 read?
Answer: Its EC50 is 33 nM.

Question: Which EC50 does the source give for `Cc1c2c(c3ccnn3c1C)CN(C(=O)CC1CN(c3ccnc(C(F)F)c3)C1)C2` [Example 208] here?
Answer: The EC50 was 42.6 nM.

Question: With `Cc1c2c(c3ncnn3c1C)CN(C(=O)CC1CN(c3ccc4nc(C(F)(F)F)cn4n3)C1)C2` [Example 213] as the compound, how does the EC50 read?
Answer: The EC50 was 12.4 nM.

Question: `Cc1c2c(c3ncnn3c1C)CN(C(=O)CC1CN(c3ccc(C(F)(F)F)cn3)C1)C2` [Example 217] was tested. Which EC50 did it give?
Answer: Its EC50 is 99.7 nM.

Question: With `COc1cc(N2CC(CC(=O)N3Cc4c(C)c(C)n5nccc5c4C3)C2)c(F)cn1` [Example 220] as the compound, how does the EC50 read?
Answer: The EC50 was 53.5 nM.

Question: With `Cc1c2c(c3ccnn3c1C)CN(C(=O)CC1CN(c3ccnc(OC4CC4)c3)C1)C2` [Example 221] as the compound, how does the EC50 read?
Answer: Its EC50 is 94.3 nM.

Question: `Cc1nc(Cl)c(C)c(N2CC(CC(=O)N3Cc4c(C)c(C)n5ncnc5c4C3)C2)n1` [Example 226] was tested. Which EC50 did it give?
Answer: The EC50 was 29.9 nM.

Question: Which EC50 does the source give for `Cc1c2c(c3ccnn3c1C)CN(C(=O)CC1CN(c3ccc4nc(C(F)(F)F)cn4n3)C1)C2` [Example 227] here?
Answer: The EC50 was 90.4 nM.

Question: For `Cc1nc2c3c(c(C)c(C)n2n1)CN(C(=O)CC1CN(c2ccnc(OC4CC4)c2)C1)C3` [Example 230], which EC50 is on record?
Answer: The EC50 was 16.3 nM.

Question: Which EC50 does the source give for `Cc1nc2c3c(c(C)c(C)n2n1)CN(C(=O)[C@@H]1CCN(c2ccncn2)C1)C3` [Example 232] here?
Answer: The EC50 was 36.4 nM.

Question: Which EC50 does the source give for `CCOc1cc(N2CC(CC(=O)N3Cc4c(C)c(C)n5ncnc5c4C3)C2)ccn1` [Example 235] here?
Answer: Its EC50 is 35.3 nM.

Question: With `CCOc1cc(N2CC(OC(=O)N3Cc4c(C)c(C)n5ncnc5c4C3)C2)ccn1` [Example 238] as the compound, how does the EC50 read?
Answer: The EC50 was 35.1 nM.

Question: How did the EC50 turn out when `COc1nccc(N2CC(OC(=O)N3Cc4c(C)c(C)n5ncnc5c4C3)C2)n1` [Example 239] was run?
Answer: Its EC50 is 42.6 nM.

Question: `[2H]C([2H])([2H])Oc1cc(N2CC(OC(=O)N3Cc4c(C)c(C)n5ncnc5c4C3)C2)ccn1` [Example 247] was tested. Which EC50 did it give?
Answer: The EC50 was 96.3 nM.

Question: For `COc1ccc(N2CC(CC(=O)N3Cc4c(C)c(C)n5ncnc5c4C3)C2)cn1` [Example 264], which EC50 is on record?
Answer: The EC50 was 47.8 nM.

Question: With `Cc1c2c(c3ncnn3c1C)CN(C(=O)C1CC(Nc3ccnc(C(F)(F)F)c3)C1)C2` (centres unmarked) [Example 284-P2, (5,6-Dimethyl-7,9-dihydro-8H-pyrrolo[3,4-c][1,2,4]triazolo[1,5-a]pyridin-8-yl)(3-((2-(trifluoromethyl)pyridin-4-yl)amino)cyclobutyl)methanone] as the compound, how does the EC50 read?
Answer: Its EC50 is 59.7 nM.

Question: With `COc1c(C)c2c(n3ncnc13)CN(C(=O)CC1CN(c3ccnc(C(F)(F)F)c3)C1)C2` [Example 292, 1-(4-Methoxy-5-methyl-7,8-dihydro-6H-[1,2,4]triazolo[5,1-f]pyrrolo[4,3-b]pyridin-7-yl)-2-{1-[2-(trifluoromethyl)pyridin-4-yl]azetidin-3-yl}ethan-1-one] as the compound, how does the EC50 read?
Answer: The EC50 was 53.5 nM.

Question: `Cc1c2c(n3ncnc3c1Cl)CN(C(=O)CC1CN(c3ccnc(C(F)(F)F)c3)C1)C2` [Example 293, 1-(4-Chloro-5-methyl-7,8-dihydro-6H-[1,2,4]triazolo[5,1-f]pyrrolo[4,3-b]pyridin-7-yl)-2-{1-[2-(trifluoromethyl)pyridin-4-yl]azetidin-3-yl}ethan-1-one] was tested. Which EC50 did it give?
Answer: Its EC50 is 99.7 nM.

Question: How did the EC50 turn out when `Cc1c2c(c3ncnn3c1C)CN(C(=O)C1CC(Nc3ncc(C(F)(F)F)cn3)C1)C2` (centres unmarked) [Example 299, (5,6-Dimethyl-7,9-dihydro-8H-pyrrolo[3,4-c][1,2,4]triazolo[1,5-a]pyridin-8-yl)(3-((5-(trifluoromethyl)pyrimidin-2-yl)amino)cyclobutyl)methanone] was run?
Answer: Its EC50 is 26.8 nM.

Question: Which EC50 does the source give for `Cc1c2c(c3ncnn3c1C)CN(C(=O)CC1CN(c3ncc(F)cn3)C1)C2` [Example 300] here?
Answer: Its EC50 is 35.7 nM.

Question: `Cc1c2c(c3ncnn3c1C)CN(C(=O)CC1CN(c3cnc4c(c3)CCCO4)C1)C2` [Example 302] was tested. Which EC50 did it give?
Answer: Its EC50 is 23.2 nM.

Question: Which EC50 does the source give for `Cc1c2c(c3ncnn3c1C)CN(C(=O)CC1CN(c3ccc(OC4CC4)nc3)C1)C2` [Example 303] here?
Answer: Its EC50 is 13.8 nM.

Question: For `Cc1c2c(c3ncnn3c1C)CN(C(=O)CC1CN(c3ccc(OC(F)F)nc3)C1)C2` [Example 305], which EC50 is on record?
Answer: The EC50 was 6.8 nM.

Question: For `Cc1c2c(c3ncnn3c1C)CN(C(=O)CC1CN(c3ccc4c(cnn4C4CC4)c3)C1)C2` [Example 306], which EC50 is on record?
Answer: The EC50 was 11.1 nM.

Question: `CCn1ccc2cc(N3CC(CC(=O)N4Cc5c(C)c(C)n6ncnc6c5C4)C3)ccc21` [Example 310] was tested. Which EC50 did it give?
Answer: The EC50 was 91.2 nM.

Question: Which EC50 does the source give for `Cc1c2c(c3ncnn3c1C)CN(C(=O)CC1CN(c3ccc(C4CC4)nc3)C1)C2` [Example 312] here?
Answer: The EC50 was 15.1 nM.

Question: Which EC50 does the source give for `CCc1ccc(N2CC(CC(=O)N3Cc4c(C)c(C)n5ncnc5c4C3)C2)cn1` [Example 313] here?
Answer: Its EC50 is 10.4 nM.

Question: `Cc1ccc(N2CC(CC(=O)N3Cc4c(C)c(C)n5ncnc5c4C3)C2)cn1` [Example 318] was tested. Which EC50 did it give?
Answer: The EC50 was 11.2 nM.

Question: Which EC50 does the source give for `Cc1c2c(c3ncnn3c1C)CN(C(=O)CC1CN(c3ncc(C4CC(F)(F)C4)cn3)C1)C2` [Example 320] here?
Answer: Its EC50 is 34.1 nM.
